What was measured:
isolated rat adipocytes = experiment: glucose transport (2-deoxyglucose uptake) in isolated rat adipocytes; format: cell-based; settings: for stimulatory effect on glucose transport in the presence of semicarbazide: 1 mM semicarbazide (SSAO inhibitor); for stimulation of glucose transport at low concentration compared with A and B vanadium salts: 10 μM; for stimulation of glucose transport at low concentration compared with A and B vanadium salts / maximal stimulatory effect on glucose transport, compounds compared: vanadium salts; for maximal stimulatory effect on glucose transport, compounds compared: FIG. 6B
Protocol: In order to determine whether salts formed by vanadate and benzylamine could produce an insulin mimetic effect, the effect of increasing concentrations of hexaquis(benzylammonium) decavanadate on glucose transport activity in isolated rat adipocytes was tested. Hexaquis(benzylammonium) decavanadate induced the stimulation of glucose transport which was perceptible from concentrations of 0.5 μM, with a maximal effect observed 2.5 μM and the semimaximal effect above 1 μM. […] The maximum effect provoked by incubation with hexaquis(benzylammonium) decavanadate was greater than that produced by the presence of benzylamine and vanadate in combination (FIG. 1). […] In similar assays, the activity of hexaquis(benzylammonium) decavanadate, pentaquis(benzylammonium) decavanadate and tetraquis(benzylammonium) decavanadate on glucose transport activity in isolated rat adipocytes were analyzed.
To determine the possible insulin mimetic effect of certain vanadium arylalkylamines, the capacity of these compounds to enhance glucose transport in isolated rat adipocytes was tested. Adipose cells from Wistar rats were incubated for 45 minutes in basal conditions (Basal) or in the presence of 100 nM insulin (Ins), and different concentrations of. hexaquis(benzylammonium) decavanadate (B6V10) in the absence or in the presence of 1 mM semicarbazide (SCZ). Subsequently, 2-DG transport was measured over a 5 min. interval.
The effects of the three tested compounds (B6V10, B5V10 and B4V10) were compared. Adipose cells from Wistar rats were incubated for 45 minutes in basal conditions (Basal) or in the presence of 100 nM insulin (Ins), and different concentrations of. decavanadate (V10), hexaquis(benzylammonium) decavanadate (B6V10), pentaquis(benzylammonium) decavanadate (B5V10) or tetraquis(benzylammonium) decavanadate (B4V10) in the absence or in the presence of 1 mM semicarbazide (SCZ). 2-DG transport was measured over 5 min. intervals. […] The stimulation of all three compounds on glucose transport was blocked in the presence of semicarbazide.
In additional experiments, compounds shown in FIG. 6A (named 2-(4-fluoro-phenyl)-ethylamine (compound A), 3-phenyl-propylamine (compound B), 4-fluoro-benzylamine (compound C) and 4-phenyl-butylamine (compound D)) were assessed using the experimental methods set forth above for the capacity to stimulate 2-DG uptake in isolated rat adipocytes. Adipose cells from Wistar rats were incubated for 45 minutes in basal conditions (Basal) or in the presence of 100 nM insulin (Ins), and different concentrations of vanadium salts of 2-(4-fluoro-phenyl)-ethylamine (compound A), 3-phenyl-propylamine (compound B), 4-fluoro-benzylamine (compound C) and 4-phenyl-butylamine (compound D). 2-DG transport was measured over 5 min.
(§1) The effects of incubation with semicarbazide or phosphatidylinositol 3-kinase inhibitors were also investigated. Adipose cells were incubated with B6V10 (25 μM, 45 min) in the absence or presence of wortmannin (2 μM, 45 min), LY294002 (10 μM, 45 min) or semicarbazide (1 mM, 45 min) and thereafter 2-deoxyglucose uptake was determined during 5 min. Activation of protein kinase B phosphorylation induced by B6V10 was blocked by semicarbazide and it was not observed by decavanadate. In addition, phosphatidylinositol 3-kinase inhibitors wortmannin and LY294002 blocked B6V10-induced glucose transport (FIG. 7E).

[1] = tested on: streptozotocin-induced diabetic rats; experiment: chronic oral treatment, glycemia of streptozotocin (45 mg/kg) diabetic rats; format: in vivo, rat; settings: for effect on glycemia: daily oral administration, 17 days
Protocol: The effect of the oral administration of hexaquis(benzylammonium) decavanadate on glycemia from diabetic rats was also studied. Diabetes was induced in rats by intravenous administration of streptozotocin, and subsequently, a hexaquis(benzylammonium) decavanadate or sodium decavanadate unique dose was administered to the rats. […] After seven days of treatment, the dose was increased at 10 μmol/kg/day which was maintained for an additional ten days. […] Thus, glycemia in sodium decavanadate treated rats was approximately 450 mg/dl and glycemia of hexaquis(benzylammonium) decavanadate treated rats was approximately 250 mg/dl.
(§2) Chronic in vivo efficacy of B6V10 was evaluated in streptozotocin-induced diabetic rats and in db/db mice. Streptozotocin-induced (45 mg/kg) diabetic rats were subcutaneously treated with hexaquis(benzylammonium) decavanadate (2.5 μmol/kg) (B6V10, solid squares, FIG. 8A) or with decavanadate (2.5 μmol/kg) (V10, open circles, FIG. 8A) delivered subcutaneously by osmotic minipumps implanted in the dorsal region. Diabetic rats were also sham-operated (untreated, solid diamonds, FIG. 8A). […] These experiments were repeated using an oral administration protocol. Streptozotocin-induced (45 mg/kg) diabetic rats were orally treated with hexaquis(benzylammonium) decavanadate (5 μmol/kg from day 0 to day 7 and 10 μmol/kg/day from day 7 to day 17) (B6V10, solid squares, FIG. 8B) or received decavanadate (10 μmol/kg) (V10, open circles, FIG. 8B). Nondiabetic rats were also untreated (solid triangles, FIG. 8B).

[2] = tested on: streptozotocin-induced diabetic rats with undetectable circulating insulin; settings: 2.5 μmol/kg subcutaneous by osmotic minipumps, streptozotocin 100 mg/kg
Protocol: Male Wistar rats weighting 180-220 g were purchased from Harlan (Interfauna Ibèrica S.A., Spain). Diabetes was induced by a single intraperitoneal injection of a freshly prepared solution of streptozotocin (in some studies the dose was 45 mg/kg body weight and in some others 100 mg/kg body weight dissolved in 50 mM citrate buffer, pH 4.5). Only diabetic animals with glycemia above 300 mg/dl were used. The animals were housed in animal quarters at 22° C. with a 12 h light/12 h dark cycle and were fed ad libitum. All procedures used were approved by the animal ethical committee of the University of Barcelona, Spain.
Osmotic minipumps delivering B6V10 (2.5 μmol/kg body wt/day) or decavanadate (2.5 μmol/kg body wt/day) were implanted subcutaneously in diabetic rats anaesthetised by ketamine hydrochloride (95 mg/kg) and xylasine (10 mg/kg). […] Glycemia was measured on arterio-venous blood collected from the tail vessels at 09:00 am for two weeks, before the administration of vanadate. Insulin concentrations were determined before and after treatment. In another set of experiments, B6V10 was orally administered at a single dose of 5 μmol/kg/day during the first week and 10 μmol/kg/day during 2 additional weeks by gastric gavage. A control group received the corresponding decavanadate salt in the absence of benzylamine. At the end of the treatment, animals were sacrificed and the liver, fat pad, heart and lung were kept at −80° C. and the plasma at −20° C. until their use for in vitro analysis.
In glucose tolerance tests and in chronic treatments, circulating glucose concentrations were determined by a rapid glucose analyser (Accutrend® Sensor Comfort, Roche, Basel. Switzerland). Plasma insulin (IRI) concentration was determined by ELISA method using a kit obtained from Crystal Chem. Inc. (Downers Grove, Ill.).
To this end, rats were made diabetic by the injection of a large dose of streptozotocin (100 mg/kg) that eliminates β-pancreatic insulin content.

[3] = tested on: streptozotocin-induced diabetic rats; experiment: chronic subcutaneous (osmotic minipump) treatment, glycemia of streptozotocin (45 mg/kg) diabetic rats; format: in vivo, rat; settings: 2.5 μmol/kg/day subcutaneous by osmotic minipumps, about two weeks
Protocol: Insulin concentrations were determined before and after treatment.
The effect of chronic administration of hexaquis(benzylammonium) decavanadate on glycemia from diabetic rats was determined. Thus, diabetes was induced in rats by intravenous administration of streptozotocin, which destroys the β-pancreatic cells that produce insulin.
as §2

protein kinase B = protein kinase B phosphorylation in isolated rat adipocytes; format: cell-based; settings: 25 μM
Protocol: Isolated fat cells were disrupted for total membrane preparation by hypo-osmotic lysis in a 20 mM HES buffer and an antiprotease and antiphosphatase cocktail as reported by Abella et al. (2003, Diabetes 52: 1004-1013). Protein concentrations were determined by the Bradford method (Bradford, 1976, Anal. Biochem. 72: 248-254) with gamma-globulin as protein concentration standard. Immunoprecipitation and immunoblot assays were performed as previously described by Abella et al. (2004, Id.) with the use of a monoclonal antiphosphotyrosine antibody for the immunoprecipitation and an anti-insulin receptor antibody for immunobloting, respectively. SDS-polyacrylamide gel electrophoresis was performed on membrane proteins following conventional procedures. Proteins were transferred to Immobilon and immunoblotting was performed as reported by Castello et al. (1994, J. Biol. Chem. 269: 5905-5912).
The mechanism of action of B6V10 was investigated in isolated rat adipocytes. Adipose cells from Wistar rats were incubated for different times in the presence of 25 μM hexaquis(benzylammonium) decavanadate (B6V10). Cells were also incubated in the presence of insulin (100 nM, 45 min), decavanadate (25 μM, 45 min) or semicarbazide (1 mM, 45 min). Subsequently, 2-deoxyglucose uptake (results shown in FIG. 7A), tyrosine phosphorylation of insulin receptor (FIG. 7B), phospho-Thr^308-protein kinase B (FIG. 7C) and phospho-Ser^473-protein kinase B (FIG. 7D) was measured. […] The phosphorylation of protein kinase B induced by B6V10 was parallel to activation of glucose transport (FIGS. 7C and 7D).
as §1

[4] = isolated rat adipocytes, 45 min incubation

## NCCCc1ccccc1 [compound B, 3-phenyl-propylamine]
Isolated rat adipocytes; [4]
  stimulation of glucose transport: markedly stimulated

## pentaquis(benzylammonium) decavanadate [Example B5V10]
Isolated rat adipocytes
  stimulatory effect on glucose transport in the presence of semicarbazide: blocked
Isolated rat adipocytes; listed as pentaquis(benzylammonium) decavanadate
  stimulatory effect on glucose transport in the presence of semicarbazide: inhibited
Isolated rat adipocytes; [4]
  stimulation of glucose transport: pronounced stimulation

## tetraquis(benzylammonium) decavanadate [Example B4V10]
Isolated rat adipocytes
  stimulatory effect on glucose transport in the presence of semicarbazide: blocked
Isolated rat adipocytes; listed as tetraquis(benzylammonium) decavanadate
  stimulatory effect on glucose transport in the presence of semicarbazide: inhibited
Isolated rat adipocytes; [4]
  stimulation of glucose transport: pronounced stimulation

## NCCCCc1ccccc1 [compound D, 4-phenyl-butylamine]
Isolated rat adipocytes
  stimulation of glucose transport at low concentration compared with A and B vanadium salts: higher
  maximal stimulatory effect on glucose transport, compounds compared: similar
Isolated rat adipocytes; [4]
  stimulation of glucose transport: markedly stimulated

## NCCc1ccc(F)cc1 [compound A, 2-(4-fluoro-phenyl)-ethylamine]
Isolated rat adipocytes; [4]
  stimulation of glucose transport: markedly stimulated

## sodium decavanadate [reference compound]
Isolated rat adipocytes; alone at 5 to 50 μM
  stimulation of glucose transport: did not stimulate glucose transport
[1]
  effect on glycemia: not affected substantially
[1]; listed as V10
  effect on glycemia: did not alter glycemia
[1]; oral, after dosage increase to 10 μmol/kg/day
  glycemia: approximately 450 mg/dl
[2]
  effect on glycemia: did not show any change in circulating glucose
[3]
  effect on glycemia: did not modify substantially its glycemia
[3]; listed as V10
  effect on glycemia: did not alter glycemia
Protein kinase B
  protein kinase B phosphorylation: not observed

## NCc1ccc(F)cc1 [compound C, 4-fluoro-benzylamine]
Isolated rat adipocytes
  stimulation of glucose transport at low concentration compared with A and B vanadium salts: higher
  maximal stimulatory effect on glucose transport, compounds compared: similar
Isolated rat adipocytes; [4]
  stimulation of glucose transport: markedly stimulated

Source: US20080227809A1, “Arylalkylamine Vanadium (V) Salts for the Treatment and/or Prevention of Diabetes Mellitus” (GENMEDICA THERAPEUTICS SL, priority 2004, published 2008)
